Patent US12466812B2, “Pyridinyltriazine derivative having protein kinase inhibitory activity, and pharmaceutical composition for preventing, ameliorating, or treating cancer comprising same” (KOREA INSTITUTE OF SCIENCE AND TECHNOLOGY, priority 2019, dated 2025)

Key:
FGFR2 mutant (N549H) = FGFR2 mutant (N549H) (Homo sapiens, UniProt P21802, N549H); assay: Pan-FGFR mutant enzymatic activity; type: biochemical; details: mutant enzyme
Method: (§1) The inhibitory activity against pan-FGFR mutants of the compounds synthesized in Examples 1, 8, 13, 22, and 24 was measured, the inhibitory activity on each of enzymatic activity and cellular activity was evaluated, and the results are shown in Tables 3 and 4 below.

FGFR2 mutant (V564F) = FGFR2 mutant (V564F) (Homo sapiens, UniProt P21802, V564F); assay: Pan-FGFR mutant enzymatic activity; type: biochemical; details: mutant enzyme
Chain of FGFR2 mutant (V564F) (P21802 22-821 V564F): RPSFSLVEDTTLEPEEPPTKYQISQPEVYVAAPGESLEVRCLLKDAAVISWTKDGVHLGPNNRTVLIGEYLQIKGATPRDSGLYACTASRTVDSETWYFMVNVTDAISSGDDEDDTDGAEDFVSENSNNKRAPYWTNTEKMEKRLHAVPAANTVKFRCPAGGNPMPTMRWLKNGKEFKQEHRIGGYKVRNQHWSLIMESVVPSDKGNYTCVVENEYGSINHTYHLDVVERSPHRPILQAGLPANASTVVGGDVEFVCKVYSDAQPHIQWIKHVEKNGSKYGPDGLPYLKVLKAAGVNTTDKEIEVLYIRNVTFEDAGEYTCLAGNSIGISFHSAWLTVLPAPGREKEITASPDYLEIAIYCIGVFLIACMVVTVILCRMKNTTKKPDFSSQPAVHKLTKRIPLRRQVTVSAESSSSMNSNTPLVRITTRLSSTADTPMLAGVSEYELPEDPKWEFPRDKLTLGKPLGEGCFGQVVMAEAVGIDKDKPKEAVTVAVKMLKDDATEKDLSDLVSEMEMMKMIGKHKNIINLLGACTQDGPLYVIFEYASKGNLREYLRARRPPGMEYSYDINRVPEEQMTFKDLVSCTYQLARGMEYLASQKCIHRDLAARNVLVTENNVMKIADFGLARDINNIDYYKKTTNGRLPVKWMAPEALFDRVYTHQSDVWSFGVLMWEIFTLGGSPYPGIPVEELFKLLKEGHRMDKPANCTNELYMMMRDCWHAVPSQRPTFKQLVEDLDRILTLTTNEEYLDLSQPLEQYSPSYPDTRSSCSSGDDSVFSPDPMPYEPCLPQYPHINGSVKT
Method: as §1

FGFR3 mutant (K650E) = FGFR3 mutant (K650E) (Homo sapiens, UniProt P22607, K650E); assay: Pan-FGFR mutant enzymatic activity; type: biochemical; details: mutant enzyme
Chain of FGFR3 mutant (K650E) (P22607 23-806 K650E): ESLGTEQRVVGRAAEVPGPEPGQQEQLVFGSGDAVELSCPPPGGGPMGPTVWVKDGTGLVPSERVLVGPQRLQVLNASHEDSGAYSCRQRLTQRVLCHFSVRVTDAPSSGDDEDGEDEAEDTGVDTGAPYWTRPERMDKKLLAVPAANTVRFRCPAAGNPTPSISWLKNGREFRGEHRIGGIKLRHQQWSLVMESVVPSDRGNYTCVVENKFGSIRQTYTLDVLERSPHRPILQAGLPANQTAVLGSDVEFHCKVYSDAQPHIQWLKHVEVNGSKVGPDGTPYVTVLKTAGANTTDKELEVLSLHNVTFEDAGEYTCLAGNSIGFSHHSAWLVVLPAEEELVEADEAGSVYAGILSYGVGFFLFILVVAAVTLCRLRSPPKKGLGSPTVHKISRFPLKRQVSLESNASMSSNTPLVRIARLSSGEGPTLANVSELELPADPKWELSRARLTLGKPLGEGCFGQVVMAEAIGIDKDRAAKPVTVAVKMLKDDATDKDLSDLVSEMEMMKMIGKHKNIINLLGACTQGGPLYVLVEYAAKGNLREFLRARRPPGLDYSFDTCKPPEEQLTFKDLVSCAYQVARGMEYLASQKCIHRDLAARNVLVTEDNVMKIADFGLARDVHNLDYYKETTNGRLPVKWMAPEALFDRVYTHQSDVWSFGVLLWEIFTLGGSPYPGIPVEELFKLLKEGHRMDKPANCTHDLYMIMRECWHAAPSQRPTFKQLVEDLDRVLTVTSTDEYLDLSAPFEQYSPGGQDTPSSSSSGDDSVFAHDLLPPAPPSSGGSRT
Method: as §1

FGFR3 mutant (K650M) = FGFR3 mutant (K650M) (Homo sapiens, UniProt P22607, K650M); assay: Pan-FGFR mutant enzymatic activity; type: biochemical; details: mutant enzyme
Chain of FGFR3 mutant (K650M) (P22607 23-806 K650M): as the sequence (P22607 23-806 K650E) above, with E628M counted along it
Method: as §1

FGFR3 mutant (V555M) = FGFR3 mutant (V555M) (Homo sapiens, UniProt P22607, V555M); assay: Pan-FGFR mutant enzymatic activity; type: biochemical; details: mutant enzyme
Chain of FGFR3 mutant (V555M) (P22607 23-806 V555M): as the sequence (P22607 23-806 K650E) above, with V533M, E628K counted along it
Method: as §1

AN3-CA = assay: Pan-FGFR mutant cellular activity; type: cell-based; details: Homo sapiens, mutant cell, Table 4, read-out: GI50, AN3-CA (breast cancer cell line)
Method: as §1

[1] = system: J82 (bladder cancer cell line); assay: Pan-FGFR mutant cellular activity; type: cell-based; details: Table 4
Method: as §1

[2] = system: KMS-11 (myeloma cell line); assay: Pan-FGFR mutant cellular activity; type: cell-based; details: Homo sapiens, Table 4
Method: as §1

[3] = system: UMUC3 (bladder cancer cell line); assay: Pan-FGFR mutant cellular activity; type: cell-based; details: Homo sapiens, Table 4
Method: as §1

CYP1A2 = biological target: T1, CYP1A2 (Homo sapiens, UniProt P05177); assay: Inhibitory activity against CYP metabolic enzyme; type: in vitro ADME
T1 sequence (P05177 1-516): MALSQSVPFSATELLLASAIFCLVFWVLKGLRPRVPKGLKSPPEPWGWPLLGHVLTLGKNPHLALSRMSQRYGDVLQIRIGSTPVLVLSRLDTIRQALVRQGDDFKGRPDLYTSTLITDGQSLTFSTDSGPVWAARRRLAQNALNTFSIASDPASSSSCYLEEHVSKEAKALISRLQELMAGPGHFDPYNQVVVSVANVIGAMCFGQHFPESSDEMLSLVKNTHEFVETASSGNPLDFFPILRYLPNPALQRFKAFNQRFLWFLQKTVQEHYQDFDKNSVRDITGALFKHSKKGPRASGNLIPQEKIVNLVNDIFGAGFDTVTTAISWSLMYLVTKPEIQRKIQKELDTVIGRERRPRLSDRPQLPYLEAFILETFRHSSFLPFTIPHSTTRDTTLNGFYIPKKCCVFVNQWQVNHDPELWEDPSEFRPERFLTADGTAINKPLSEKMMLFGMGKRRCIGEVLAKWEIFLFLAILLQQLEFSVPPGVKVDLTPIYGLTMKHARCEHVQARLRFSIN

CYP3A4 = CYP3A4 (Homo sapiens, UniProt P08684); assay: Inhibitory activity against CYP metabolic enzyme; type: in vitro ADME
Chain of CYP3A4 (P08684 whole entry): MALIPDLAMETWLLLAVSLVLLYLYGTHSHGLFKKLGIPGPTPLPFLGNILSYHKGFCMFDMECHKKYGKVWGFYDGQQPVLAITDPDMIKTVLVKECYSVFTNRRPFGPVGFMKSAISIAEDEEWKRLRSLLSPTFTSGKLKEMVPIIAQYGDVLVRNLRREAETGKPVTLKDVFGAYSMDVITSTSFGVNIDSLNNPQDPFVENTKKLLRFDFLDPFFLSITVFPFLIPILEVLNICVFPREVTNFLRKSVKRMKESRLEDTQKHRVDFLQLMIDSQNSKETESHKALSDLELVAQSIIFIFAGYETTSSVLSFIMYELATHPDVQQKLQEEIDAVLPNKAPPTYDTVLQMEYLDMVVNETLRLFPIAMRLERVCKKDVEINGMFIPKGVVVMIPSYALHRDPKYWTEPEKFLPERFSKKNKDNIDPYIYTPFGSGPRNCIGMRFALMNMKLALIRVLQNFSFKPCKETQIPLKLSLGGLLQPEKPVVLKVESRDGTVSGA

Chain of FGFR2 mutant (N549H) (P21802 22-821 N549H): as the sequence (P21802 22-821 V564F) above, with N528H, F543V counted along it

IC50 (FGFR2 mutant (N549H)): < 100 nM
IC50 (FGFR2 mutant (V564F)): 100 to 1000 nM
IC50 (FGFR3 mutant (K650E)): < 100 nM
IC50 (FGFR3 mutant (K650M)): < 100 nM
IC50 (FGFR3 mutant (V555M)): 100 to 1000 nM
GI50 [1]: 1000 to 10000 nM
GI50 [2]: < 1000 nM
GI50 [3]: 1000 to 10000 nM
rate (%) of inhibition, CYP1A2 (CYP1A2): 71.4%
rate (%) of inhibition, CYP3A4 (CYP3A4): 17.0%
Compound: CCN1CCN(c2ccc(Nc3ncnc(-c4cccnc4Nc4c(Cl)c(OC)cc(OC)c4Cl)n3)cc2)CC1 [Example 1]
GI50 (AN3-CA): < 1000 nM
